The source made the active and inactive calls.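 Rule for the calls: active = substrate turnover at or below 60%; inactive = substrate turnover above 60%.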
target: Diacylglycerol lipase-beta (Mus musculus) (UniProt Q91WC9); assay: DAGLb inhibitors reducing SAG hydrolysis, biochemical, LC-MS, overexpressed mouse DAGLb (AID 602415); details: HEK293T membranes overexpressing mDAGLb, at 10 µM, active compounds read low
Sequence (Q91WC9 whole entry, looked up): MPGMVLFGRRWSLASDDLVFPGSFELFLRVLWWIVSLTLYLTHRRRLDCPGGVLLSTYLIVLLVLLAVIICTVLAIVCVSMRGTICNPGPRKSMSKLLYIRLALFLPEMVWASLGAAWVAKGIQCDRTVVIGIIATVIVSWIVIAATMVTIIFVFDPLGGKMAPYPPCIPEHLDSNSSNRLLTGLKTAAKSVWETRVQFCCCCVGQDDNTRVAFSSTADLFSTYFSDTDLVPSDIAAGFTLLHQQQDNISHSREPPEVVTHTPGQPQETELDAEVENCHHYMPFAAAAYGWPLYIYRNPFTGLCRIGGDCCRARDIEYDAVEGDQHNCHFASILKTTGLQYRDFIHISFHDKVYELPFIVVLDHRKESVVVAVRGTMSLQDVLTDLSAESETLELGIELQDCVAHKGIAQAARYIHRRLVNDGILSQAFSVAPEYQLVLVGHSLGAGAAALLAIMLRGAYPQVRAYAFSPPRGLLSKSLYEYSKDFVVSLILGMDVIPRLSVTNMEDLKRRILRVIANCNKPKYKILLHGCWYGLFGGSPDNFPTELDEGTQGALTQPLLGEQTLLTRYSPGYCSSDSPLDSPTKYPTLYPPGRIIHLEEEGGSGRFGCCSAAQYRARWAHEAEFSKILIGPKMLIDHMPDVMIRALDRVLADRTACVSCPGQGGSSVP

| Structure (SMILES) | substrate turnover |
| --- | --- |
| COc1ccc(C=NNc2ccc(C(F)(F)F)cc2[N+](=O)[O-])cc1O | 76% (inactive) |
| CC(=NNc1ccc(S(N)(=O)=O)cc1[N+](=O)[O-])c1ccc2c(c1)OCO2 | 64% (inactive) |
| O=C(NNc1c2ccccc2nc2ccccc12)c1ccccc1O | 56% |
| CC(C1SC(=S)NC1=O)C1SC(=S)NC1=O (stereo unspecified) | 67% (inactive) |
| Cc1oc2cc([N+](=O)[O-])c(O)c([N+](=O)[O-])c2c1C(=O)c1ccc(Br)cc1 | 62% (inactive) |
| CCC(=NNc1ccc([N+](=O)[O-])cc1[N+](=O)[O-])c1ccc(O)cc1 | 67% (inactive) |
| O=C(NNc1c2ccccc2nc2ccccc12)c1cc2ccccc2cc1O | 65% (inactive) |
| COc1cc(C=NNc2ccccc2[N+](=O)[O-])cc(OC)c1O | 60% (inactive) |
| CN(C)c1ccc(N=Nc2ccc(S(=O)(=O)O)cc2)c2ccccc12 | 66% (inactive) |
| O=C1c2ccccc2C(=O)c2c1cccc2N1CCCC1 | 79% (inactive) |
| CC(=O)c1ccc(N2CCN(c3ccc(C(F)(F)F)cn3)CC2)cc1 | 67% (inactive) |
| CCCCCCCCCCC[C@@H](C[C@@H]1OC(=O)[C@H]1CCCCCC)OC(=O)[C@H](CC(C)C)NC=O | 0% |
| Cn1cc(/C=C2\SC(=O)NC2=S)c2ccccc21 | 61% (inactive) |
| CCOc1ccc2c(c1)-c1c(ssc1=S)C(C)(C)N2 | 70% (inactive) |
| COc1cc(/C=C2\SC(=O)N(c3ccccc3Cl)C2=O)cc([N+](=O)[O-])c1O | 61% (inactive) |
| O=[N+]([O-])c1ccc(N2CCN(c3ccc(F)cc3)CC2)cc1 | 74% (inactive) |
| COc1cc(/C=C2/C(=O)NN(c3ccc(C)c(Cl)c3)C2=O)cc([N+](=O)[O-])c1O | 43% |
| O=S(=O)(O)c1cccc(N=Nc2c(O)ccc3ccccc23)c1 | 59% |
| Cc1[nH]n2c(=O)cc(-c3ccc([N+](=O)[O-])cc3)nc2c1-c1ccccc1 | 90% (inactive) |
| CC1(C)CC(=O)C2=C(C1)N=C1c3ccccc3C(=O)C1C2c1ccc(Cl)cc1 (stereo unspecified) | 82% (inactive) |
| Cc1cc(N(CCO)CCO)ccc1N=Nc1cc(F)ccc1F | 69% (inactive) |
| Nc1ccc(N=Nc2ccccc2)c2cccnc12 | 88% (inactive) |

| Structure (SMILES) | substrate turnover |
| --- | --- |
| COc1ccccc1C=NNc1ccccc1[N+](=O)[O-] | 94% (inactive) |
| CN(C)c1ccc(N=Nc2ccc(S(N)(=O)=O)cc2)cc1 | 59% |
| Cc1cc(N=Nc2ccccc2C(=O)O)c(C)c(C)c1O | 89% (inactive) |
| CCN(Cc1ccccc1)c1ccc(N=Nc2nn(C)c(C)c2[N+](=O)[O-])cc1 | 97% (inactive) |
| O=C1C(=C(c2ccccc2)c2ccccc2)Nc2ccccc21 | 50% |
| COC(=O)c1ccccc1NCc1cc(=O)oc2cc(O)c(O)cc12 | 48% |
| O=C1c2cccc(Cl)c2C(=O)c2c1cccc2N1CCCC1 | 52% |
| O=C(NN1C(=O)/C(=C/c2ccc(O)c([N+](=O)[O-])c2)SC1=S)c1ccccc1Cl | 59% |
| O=C(NC(C(=O)NN=Cc1cccc2ccccc12)c1n[nH]c(=O)c2ccccc12)c1ccccc1 (stereo unspecified) | 49% |
| Nc1cc([N+](=O)[O-])cc2oc(-c3ccccc3)cc12 | 89% (inactive) |
| COc1cccc(C(=O)NNc2c3ccccc3nc3ccccc23)c1 | 71% (inactive) |
| COC(=O)C1=C(C(=O)OC)SC(=C2C(=S)C(C)(C)N(C(=O)C3CC3)c3ccccc32)S1 | 95% (inactive) |
| N=C1C(c2nc3ccccc3s2)=C(O)CN1NC(=O)c1ccccc1[N+](=O)[O-] | 46% |
| Cc1ccc(NC2=C(Cl)C(=O)OC2OC(=O)c2ccco2)cc1C (stereo unspecified) | 39% |
| CCCOc1ccc(C(=O)NNC(=S)NC(=O)c2cc(-c3ccc(Cl)cc3)nc3ccccc23)cc1 | 93% (inactive) |
| COc1ccc(N/C=C2\C(=O)CCc3c2oc2cc(Cl)c(O)c(Cl)c32)cc1 | 16% |
| N#CC(C#N)=NNc1ccc([N+](=O)[O-])cc1 | 65% (inactive) |
| c1ccc(N=NC2=NN(c3ccccc3)CS2)cc1 | 61% (inactive) |
| O=[N+]([O-])c1ccccc1NN=Cc1c[nH]c2ccccc12 | 80% (inactive) |
| CCN(CC)c1ccc(N=Nc2nn(C)c(C)c2[N+](=O)[O-])cc1 | 68% (inactive) |
| Cc1cc(N=Nc2ccccc2)c(NCC(O)C(O)C(O)CO)cc1C (stereo unspecified) | 69% (inactive) |
| Nc1nc(-c2ccccc2)c(N=Nc2ccccc2Cl)s1 | 39% |

| Structure (SMILES) | substrate turnover |
| --- | --- |
| COc1ccc(S(=O)(=O)N2CCOCC2)cc1N=Nc1sc(N)nc1-c1ccccc1 | 97% (inactive) |
| Cc1ccc(C2C(/C=C3/SC(=S)NC3=O)=C(c3cccs3)Oc3ccccc32)cc1 (stereo unspecified) | 35% |
| O=[N+]([O-])c1ccc(C=NNc2ccc3ccccc3c2)o1 | 67% (inactive) |
| O=C(NNc1c2ccccc2nc2ccccc12)c1ccc(O)cc1O | 79% (inactive) |
| CCCN1C(=O)/C(=C2/C=Cc3ccccc3N2CC)SC1=S | 68% (inactive) |
| CC(=O)Nc1ccc(/C=N/Nc2ccc(S(=O)(=O)Nc3ccccc3C(=O)O)cc2[N+](=O)[O-])cc1 | 84% (inactive) |
| CCOc1ccccc1N1CCN(C2=C(NS(=O)(=O)c3cccs3)C(=O)c3ccccc3C2=O)CC1 | 79% (inactive) |
| Cc1ccc(-n2c(O)c(/C=N/Nc3ccc(S(=O)(=O)N4CCOCC4)cc3[N+](=O)[O-])c3ccccc3c2=O)c(C)c1 | 56% |
| CC(=O)C1=C(O)C(=O)N(c2cc(C(C)(C)C)on2)C1c1ccc(Br)cc1 (stereo unspecified) | 26% |
| CN(C)c1ccc(N=Nc2ccccc2C(=O)OCC(=O)NCC2CCCCC2)cc1 | 79% (inactive) |
| Nc1nc(-c2ccccc2)c(N=Nc2ccc(Cl)cc2)s1 | 23% |
| CC1(C)CCCN(C(=O)c2ccc3c(c2NCCO)C(=O)c2ccccc2C3=O)C1 | 20% |
| Cc1ccc(-n2[nH]c(C)c(C=NNc3ccc([N+](=O)[O-])cc3[N+](=O)[O-])c2=O)cc1C | 57% |
| Cc1ccc(C)c(NC(=O)/C(C#N)=C/c2cn(CC(=O)NCc3ccco3)c3ccccc23)c1 | 93% (inactive) |
| Nc1nc(-c2ccccc2)c(N=Nc2cccnc2)s1 | 53% |
| Nc1ccc2c(c1)C(=O)c1cc(Cl)c(Cl)cc1-2 | 47% |
| NC(=O)CC(NC(=O)c1ccc(Br)cc1)c1ccc(NCCc2ccc(F)cc2)c([N+](=O)[O-])c1 (stereo unspecified) | 70% (inactive) |
| Cc1ccc(Nc2nnc(SCc3nc4ccccc4c(=O)[nH]3)s2)cc1 | 87% (inactive) |
| O=C(NC(C(=O)NN=Cc1c2ccccc2cc2ccccc12)c1n[nH]c(=O)c2ccccc12)c1ccccc1 (stereo unspecified) | 64% (inactive) |
| NS(=O)(=O)c1ccc(N=Nc2c(O)ccc3ccccc23)cc1 | 57% |
| Nc1nc(-c2ccccc2)c(N=Nc2cccc3ccccc23)s1 | 95% (inactive) |
| COc1ccc(C2/C=C\CN(C(=O)c3ccc(C)cc3)[C@H](Cc3ccccc3)C(=O)N2Cc2ccc(F)cc2)cc1 (stereo partly specified) | 59% |

| Structure (SMILES) | substrate turnover |
| --- | --- |
| CCOC(=O)/C(C#N)=C/C=C1\C=Cc2ccccc2N1CC | 51% |
| O=C(O)COc1ccccc1C=NNc1ccc(S(=O)(=O)Nc2ccc(Cl)cc2)cc1[N+](=O)[O-] | 50% |
| O=C1S/C(=C\c2ccc(O)c([N+](=O)[O-])c2)C(=O)N1c1ccccc1Cl | 76% (inactive) |
| O=[N+]([O-])c1ccc(N2CCN(c3ccccc3)CC2)cc1 | 91% (inactive) |
| C/C(C/C(C)=C1/SC(=S)NC1=O)=C1\SC(=S)NC1=O | 22% |
| CC1CC(C)CN(C(=O)c2ccc3c(c2NCCO)C(=O)c2ccccc2C3=O)C1 (stereo unspecified) | 78% (inactive) |
| O=C(O)c1cc(S(=O)(=O)Nc2cc(Cl)ccc2Oc2ccccc2)ccc1O | 53% |
| NP(=O)(OCCCCc1ccccc1)Oc1ccccc1Cl (stereo unspecified) | 25% |
| O=C1CC(=C(c2ccccc2)c2ccccc2)C(=O)N1CCCCN1CCN(c2cccc(Cl)c2)CC1 | 26% |
| CCOc1cc(/C=C2\N=C(SCC)SC2=O)cc([N+](=O)[O-])c1OC(C)=O | 78% (inactive) |
| O=C1C(NS(=O)(=O)c2cccs2)=C(N2CCN(c3cccc(Cl)c3)CC2)C(=O)c2ccccc21 | 81% (inactive) |
| CCN(CCCNc1cc2c(c(N)c1S(=O)(=O)O)C(=O)c1ccccc1C2=O)c1ccccc1 | 80% (inactive) |
| CCSC1=NC(=O)/C(=C2/C=Cc3ccccc3N2CC)S1 | 100% (inactive) |
| CCOc1ccc(Nc2nnc(SCc3nc4ccccc4c(=O)[nH]3)s2)cc1 | 69% (inactive) |
| CC(=O)c1c(C)oc2ccc(NS(=O)(=O)c3ccc(O)c(C(=O)O)c3)cc12 | 23% |
| COc1ccccc1N=Nc1nc(-c2ccccc2)c(-c2ccccc2)[nH]1 | 79% (inactive) |
| CC1=NN(c2ccccc2)C(=O)C1N=Nc1ccc(N)cc1 (stereo unspecified) | 65% (inactive) |
| CC1(C)CC(=O)C2=C(C1)c1c(ccc3ccccc13)NC2c1cc([N+](=O)[O-])cc([N+](=O)[O-])c1O (stereo unspecified) | 46% |
| CN(C)c1ccc(N=Nc2ccccc2C(=O)OCC(=O)Nc2ccccc2C(F)(F)F)cc1 | 67% (inactive) |
| CC1=NN(c2ccccc2)C(=O)/C1=C\C=C1/N(C)c2ccccc2C1(C)C | 74% (inactive) |
